# Columns and labels:
# [1] = test system: vasopressin-induced hypertension; experiment: Reversal of vasopressin-induced hypertension in rats, intraduodenal single dose; assay type: in vivo, Male Long Evans rats; conditions: ID dose 10 mg/kg, anesthetized rats, maximum percent reversal within 60 min
# Description: Reversal of Vasopressin-Induced Hypertension in Rats
# The anti-hypertensive activity of compounds was screened in an anesthetized model of vasopressin-induced hypertension. Male Long Evans, normotensive rats of between 350 and 450 g in body weight were anesthetized with pentobarbital (35 mg/kg, ip) and maintained throughout the procedure with an ip infusion of 10 mg/kg/hr. Arginine vasopressin was infused at 30 ng/kg/min, iv, to induce a stable hypertensive state (ca. 50 mmHg increase in mean arterial blood pressure). Compounds of interest were administered in an ascending dose fashion and the maximum decrease in mean arterial blood pressure was recorded. An ED50 was determined from the linear portion of the dose-response relationship for each animal.
# This model was modified slightly to assess the bioavailability of compounds of interest. Rather than dosing the animals iv in an ascending dose fashion, a single dose per animal was administered directly into the duodenum. The anti-hypertensive effects were then monitored for 60 min and the maximum percent reversal was calculated.
# human V-2 receptor = biological target: T1, human V-2 receptor (Homo sapiens, UniProt P30518); experiment: In vitro recombinant vasopressin receptor binding assay (V-2), displacement of 3H-arginine vasopressin; parameters: dose or concentration left out as unconfirmed; conditions: cloned human V-2 receptor membranes, HEK-293
# T1 construct: expressed in transfected cells; host or cells: HEK-293
# T1 sequence (P30518 whole entry): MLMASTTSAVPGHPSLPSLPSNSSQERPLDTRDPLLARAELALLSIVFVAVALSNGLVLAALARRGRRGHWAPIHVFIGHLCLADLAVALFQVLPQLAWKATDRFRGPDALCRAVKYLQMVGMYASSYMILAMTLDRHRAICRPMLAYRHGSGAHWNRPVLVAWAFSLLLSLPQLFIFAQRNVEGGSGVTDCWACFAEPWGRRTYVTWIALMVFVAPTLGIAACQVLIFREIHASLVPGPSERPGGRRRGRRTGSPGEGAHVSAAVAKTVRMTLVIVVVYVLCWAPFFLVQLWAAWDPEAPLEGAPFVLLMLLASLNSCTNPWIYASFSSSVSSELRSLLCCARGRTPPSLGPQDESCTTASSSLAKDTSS
# Description: (§1) In Vitro Recombinant Vasopressin Receptor Binding Assay
# (§2) Compounds were assessed for their ability to displace ^3H-arginine vasopressin from the human V-1 or V-2 receptor in HEK-293 cells. […] Into wells of 96-well round bottom polypropylene plates were added buffer, test compound, membrane (containing cloned human V-1 or V-2 receptor), and ^3H-vasopressin. The reaction plates were allowed to sit at rt for 1 h. The samples were filtered through Unifilter GF/C plates presoaked in 0.3 polyethyleneimine). The plates were washed 5 times with cold physiological saline containing 0.05% Tween 20. After drying, the bottom of the filter plates were sealed and 0.025 ml of Microscint-20 was added to each filter. The top of the plate was sealed, and the plate was counted.
# human V-1 receptor = biological target: T2, human V-1 receptor (Homo sapiens, UniProt P37288); experiment: In vitro recombinant vasopressin receptor binding assay (V-1), displacement of 3H-arginine vasopressin; parameters: unit of the concentration uncertain; conditions: at 0.1 (unit uncertain) as printed in cell; cloned human V-1 receptor membranes, HEK-293
# T2 construct: expressed in transfected cells; host or cells: HEK-293
# T2 sequence (P37288 whole entry): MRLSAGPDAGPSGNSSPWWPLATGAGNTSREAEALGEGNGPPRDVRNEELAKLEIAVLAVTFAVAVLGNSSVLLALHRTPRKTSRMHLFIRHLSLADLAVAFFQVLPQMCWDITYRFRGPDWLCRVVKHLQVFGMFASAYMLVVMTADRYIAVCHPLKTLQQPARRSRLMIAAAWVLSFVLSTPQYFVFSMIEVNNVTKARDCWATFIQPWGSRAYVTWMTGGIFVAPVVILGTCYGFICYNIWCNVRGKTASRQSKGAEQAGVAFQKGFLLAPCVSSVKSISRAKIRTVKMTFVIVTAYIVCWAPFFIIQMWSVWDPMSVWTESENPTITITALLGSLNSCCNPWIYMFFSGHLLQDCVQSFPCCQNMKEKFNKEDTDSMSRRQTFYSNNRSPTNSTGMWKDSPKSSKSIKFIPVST
# Description: as §1, §2
Structure (SMILES),BP Reduction (%) [1] [%],V2 Bdg (%) (human V-2 receptor),V1 Bdg (%) (human V-1 receptor)
"O=C(Nc1ccc(C(=O)N2CCCc3c[nH]c4cccc2c34)cc1)c1ccccc1-c1ccccc1 [Compound 10, 6-[4-[[(2-Biphenyl-)carbonyl]amino]benzoyl]-3,4,5,6-tetrahydro-1H-azepino[4,3,2-cd]indole]",17,,
"Cc1occc1C(=O)Nc1ccc(C(=O)N2CCCc3c[nH]c4cccc2c34)cc1 [Compound 12, 6-[4-[[(2-Methyl-3-furanyl)carbonyl]amino]benzoyl]-3,4,5,6-tetrahydro-1H-azepino[4,3,2-cd]indole]",,24% (1.0 M),
"O=C(Nc1ccc(C(=O)N2CCCC3C(=O)Nc4cccc2c43)cc1)c1ccccc1-c1ccccc1 (centres unmarked) [Compound 15, 6-[4-[[(2-Biphenyl-)carbonyl]amino]benzoyl]-3,4,5,6-tetrahydro-1H-azepino[4,3,2-cd]-2-indolone]",23,,
"CN(C)Cc1[nH]c2cccc3c2c1CCCN3C(=O)c1ccc(NC(=O)c2ccccc2-c2ccccc2)cc1 [Compound 17, 6-[4-[[(2-Biphenyl-)carbonyl]amino]benzoyl]-2-(N, N-dimethylaminomethyl)-3,4,5,6-tetrahydro-1 H-azepino[4,3,2-cd]indole]",,,6% (0.1 M)
"O=C(Nc1ccc(C(=O)N2CCCc3c(S(=O)(=O)O)[nH]c4cccc2c34)cc1)c1ccccc1-c1ccccc1 [Compound 18, 6-[4-[[(2-Biphenyl-)carbonyl]amino]benzoyl]-3,4,5,6-tetrahydro-1H-azepino[4,3,2-cd]indole-2-sulfonic acid]",13,,0% (0.1 M)
"O=C(Nc1ccc(C(=O)N2CCCc3c(S(=O)(=O)O)[nH]c4cccc2c34)c(Cl)c1)c1ccccc1-c1ccccc1 [Compound 19, 6-[4-[[(2-Biphenyl-)carbonyl]amino]2-chlorobenzoyl]-3,4,5,6-tetrahydro-1 H-azepino (4,3,2-cd]indole-2-sulfonic acid]",23,,4% (0.1 M)

# Source: patent US6765004B1, “Indoloazepines as vasopressin receptor antagonists” (priority 1999, dated 2004)
